# Like-named read-outs stand apart in the source and are kept apart here.
# Key:
# [1] = Calculation of required transdermal delivery rate in humans (Eqn. 10.5); conditions: human; for required steady-state transdermal flux: skin area of 20 cm^2, Cpss 1 ng/ml (Compound A), 0.5 ng/ml (Compound B, using Compound A parameters)
# Method: (§1) The values obtained for the intermediate dose of 21 μg/Kg were used to determine the necessary input rate, i.e., steady state flux, required in humans to achieve therapeutic plasma levels as outlined by Lee et al. (Res. Comm. Mol. Path. Pharmacol., 85, 337-346, 1994) in their studies on melatonin. […] As described by Chatterjee et al. (Pharm. Res., 14:1058-1065, 1997), the following equation can be used to predict required delivery rates, assuming transdermal delivery can be treated as an intravenous infusion:
# where K0 is the required zero order delivery rate to achieve a therapeutic steady state plasma concentration (Cpss). […] Thus, for a skin area of 20 cm^2, the required steady-state transdermal flux would be 0.45 μg/cm^2/hr. Assuming a therapeutic plasma level of 0.5 ng/ml for Compound B and utilizing the relevant Compound A parameters, a required steady-state flux of 0.23 μg/cm^2/hr was calculated for a skin area of 20 cm^2.
# [2] = Pharmacokinetics of Compound A after i.v. infusion to healthy human volunteers (Chassard et al.); assay type: in vivo
# Method: A number of basic equations exist for the prediction of drug plasma levels in humans obtained by transdermal delivery. In order to make use of these equations, basic human pharmacokinetic parameters are required for the drug in question. Chassard et al. (J. Endocrinol. Invest. 20(Supp. to no. 7):30-32, 1997) reported on the pharmacokinetics of Compound A after i.v. infusion of 7, 21 and 42 μg/Kg to healthy human volunteers (n=12) obtaining values as shown in Table 20.
# as §1, with “infusion: […]” for “infusion:”
# [3] = human, cited from earlier work
# [4] = In vitro transdermal permeation, diffusion cell, pig epidermis; assay type: in vitro ADME, domestic pigs
# Method: The viable epidermal layer was removed from the flanks of freshly sacrificed four month-old female domestic pigs. The flank area of each animal was carefully shaved and the upper 200 μm of skin (Meyer, W., et al., Curr. Prob. Dermatol., 7: 39-52, 1978; de Jalón, et al., J. Control. Rel., 75:191-197, 2001) was harvested using an electric dermatome (Robbins Instruments, Chatham, N.J., U.S.A.). Pigskin epidermal specimens were frozen at −18° C. between layers of PBS-soaked tissue paper enclosed in aluminum foil for up to two weeks prior to use in in vitro permeation studies.
# A custom made finite dosing diffusion cell (AGB Scientific, Dublin, Ireland, FIG. 1) based upon and modified from the Keshary-Chien type diffusion cell was used for in vitro permeation studies.
# Three to five diffusion cells were used in each permeation experiment and monitoring was performed over a 48 hour period. The cells were linked in series to a thermostatically controlled circulation bath set at 35° C. to mimic human skin surface temperature. Each cell was placed on a stir-plate set at a defined stirring rate of 1,000 rpm. The surface area for permeation provided by each cell was 3.14 cm^2.
# Data collected from each permeation study included:
# 1) the average maximum flux obtained in 48 hours (Jmax),
# 2) the total absorption characterized as the total weight of peptide delivered transdermally into the receiver compartment over a 48 hour period,
# 3) the lag time to detectable flux which was equivalent to the latest sampling time at which no peptide was detectable by HPLC analysis of the receiver solution, and
# 4) an equivalent 48-hour steady state flux was determined by obtaining the slope of the best-fit line for a plot of cumulative flux per unit area versus time (described by McDaid, D. M. et al., Int. J. Pharm., 133:71-83, 1996).
# Fresh hairless mouse skin samples or fresh or freshly thawed pig skin samples were mounted onto the diffusion cell with the SC topmost and in contact with the donor system. A rubber or plastic ring was placed on top of the skin sample to secure it in position. The combination of the diffusion cell top, the skin and the rubber ring was securely fastened together by means of a threaded cap. A recorded volume of receiver solution was added to the receiver compartment and maintained at 35° C. The receiver solution was 60/40 (v/v) PBS/propylene glycol (pH 7.1). The propylene glycol fraction was used to increase the solubility of the somatostatin-fatty acid salts. Previous work reported by Morgan et al. (J. Pharm. Sci., 87:1213-1218, 1998) has shown that a 50/50 water/propylene glycol receptor solution had no detrimental effect on the barrier integrity of both hairless mouse and porcine skin.
# The receiver solution was allowed to equilibrate at 35° C. for 30 minutes. The experiment was initiated by the application of 1 ml of donor solution containing approximately 5 mg free base peptide in DMSO to the skin surface followed by sealing of the donor compartment with Parafilm®. A narrow-bore hypodermic needle was used to withdraw 1 ml samples from the receiver compartment via the sampling port; at each sampling time, an equal volume of drug-free receiver solution was immediately added back to the receiver compartment. Samples were analyzed by HPLC.
# HPLC determination of peptide content in the receiver solution along with the known surface area of skin used (3.14 cm^2) allowed for calculation of transdermal flux (in units of μg/cm^2/hr) for each time point. Panels 1 and 2 of FIG. 2 show flux profiles obtained for the oleate salts of Compound A and Compound B in DMSO which far exceeded the flux profiles for the myristate, octanoate, decanoate, linoleate, nonanote, acetate and laurate salts of Compound A as well as the acetate salt of Compound B in DMSO. […]
# [5] = cited from earlier work
# [6] = mice, topical with 1% N-decylmethylsulfoxide, within 2 hours of administration; cited from earlier work
# [7] = rabbits, iontophoresis; cited from earlier work
structure (smiles),measurement,setting,value
"CC(C)[C@@H]1NC(=O)[C@H](CCCCN)NC(=O)[C@@H](Cc2c[nH]c3ccccc23)NC(=O)[C@H](Cc2ccc(O)cc2)NC(=O)[C@@H](NC(=O)[C@H](N)Cc2ccc3ccccc3c2)CSSC[C@@H](C(=O)N[C@H](C(N)=O)[C@@H](C)O)NC1=O [Compound A, D-2-Nal-c(Cys-Tyr-D-Trp-Lys-Val-Cys)-Thr-NH2]",required input rate (K0),"[1]; required Cpss=1 ng/ml, Eqn. 10.5",8.98 µg/h
same,required steady-state transdermal flux,[1],0.45 μg/cm^2/hr
same,CL for a 70 Kg human,[2]; 292 (ml/hr)/Kg×70 Kg,"20,440 cm^3/hr"
same,Vd,"[2]; human, plasma, intravenous, 21 ug/kg, from Vss at 21 μg/Kg multiplied by 70 Kg",13 L
same,AUC,[3]; i.v. infusion 7 μg/Kg,21.2 ± 4.1 (ng/ml)/hr
same,CL,[3]; i.v. infusion 7 μg/Kg,341 ± 62 (ml/hr)/Kg
same,Kel,[3]; i.v. infusion 7 μg/Kg,0.87 ± 0.11 h⁻¹
same,MRTinfusion,[3]; i.v. infusion 7 μg/Kg,42 ± 6 min
same,Vss,[3]; i.v. infusion 7 μg/Kg,0.194 ± 0.041 L/kg
same,t1/2,[3]; i.v. infusion 7 μg/Kg,48 ± 6 min
same,AUC,[3]; i.v. infusion 21 μg/Kg,74.3 ± 13.7 (ng/ml)/hr
same,CL,[3]; i.v. infusion 21 μg/Kg,292 ± 58 (ml/hr)/Kg
same,Kel,[3]; i.v. infusion 21 μg/Kg,0.69 ± 0.07 h⁻¹
same,MRTinfusion,[3]; i.v. infusion 21 μg/Kg,48 ± 6 min
same,Vss,[3]; i.v. infusion 21 μg/Kg,0.186 ± 0.044 L/kg
same,t1/2,[3]; i.v. infusion 21 μg/Kg,60 ± 6 min
same,AUC,[3]; i.v. infusion 42 μg/Kg,180.6 ± 46.6 (ng/ml)/hr
same,CL,[3]; i.v. infusion 42 μg/Kg,249 ± 72 (ml/hr)/Kg
same,Kel,[3]; i.v. infusion 42 μg/Kg,0.43 ± 0.09 h⁻¹
same,MRTinfusion,[3]; i.v. infusion 42 μg/Kg,54 ± 12 min
same,Vss,[3]; i.v. infusion 42 μg/Kg,0.187 ± 0.049 L/kg
same,t1/2,[3]; i.v. infusion 42 μg/Kg,96 ± 18 min
same,estimated daily systemic delivery across human skin,"[4]; from Jss across pig epidermis, 55/40/5 ethanol/water/cineole, patch area of 20 cm^2",approximately 0.675 mg
"CC[C@@H]1NC(=O)[C@H](CCCCN)NC(=O)[C@@H](Cc2c[nH]c3ccccc23)NC(=O)[C@H](Cc2ccc(O)cc2)NC(=O)[C@@H](NC(=O)[C@@H](Cc2ccccc2)NC(=O)CN2CCN(CCO)CC2)CSSC[C@@H](C(=O)N[C@H](C(N)=O)[C@@H](C)O)NC1=O [Compound B, [4-(2-hydroxyethyl)]-1-piperazinylacetyl-D-Phe-c(Cys-Tyr-D-Trp-Lys-Abu-Cys)-Thr-NH2]",required steady-state transdermal flux,[1],0.23 μg/cm^2/hr
same,estimated daily systemic delivery across human skin,[4],approximately 2.665 mg
CC(C(=O)O)c1ccc(N=[N+]=[N-])cc1 (stereo not drawn) [azidoprofen],flux through hairless mouse skin,[5]; donor concentration 6 μmol cm-3,0.236 μmol cm-2 hr-1
same,flux through hairless mouse skin,[5]; donor concentration 15 μmol cm-3,0.649 μmol cm-2 hr-1
"C[C@@H](O)[C@@H]1NC(=O)[C@H](CCCCN)NC(=O)[C@@H](Cc2c[nH]c3ccccc23)NC(=O)[C@H](Cc2ccccc2)NC(=O)[C@@H](NC(=O)[C@H](N)Cc2ccccc2)CSSC[C@@H](C(=O)N[C@H](CO)[C@@H](C)O)NC1=O [octreotide, D-Phe-c(Cys-Phe-D-Trp-Lys-Thr-Cys)-Thr-ol]",plasma levels of peptide,[6],> 8 ng/mL
same,apparent bioavailability,[7],approximately 8%
same,therapeutic plasma concentration throughout the iontophoretic episode,[7],greater than 1 ng/ml

# From patent US20130085105A1, “Transdermal Administration Of Peptides” (The Provost, Fellows and Scholars of the College of Holy …, priority 2010, published 2013)
